Data: PMC7661129, “Evaluation of Binding of Rosmarinic Acid with Human Transferrin and Its Impact on the Protein Structure: Targeting Polyphenolic Acid-Induced Protection of Neurodegenerative Disorders” (Oxidative Medicine and Cellular Longevity, 2020)

Tests used:
[1] = molecular target: T1, Human transferrin (hTf) (Homo sapiens, UniProt P02787); assay: intrinsic fluorescence quenching, modified Stern-Volmer; assay type: binding; conditions: 301 K; 20 mM sodium phosphate pH 7.4; n = 1.25; double-log
T1 construct: gene TF
Excerpt: intrinsic fluorescence quenching, modified Stern-Volmer on Human transferrin (hTf)

[2] = molecular target: T1, Human transferrin (hTf); assay: isothermal titration calorimetry (VP-ITC); assay type: binding; conditions: 25 °C; 20 mM sodium phosphate pH 7.4; four-site fit, first site; large fit error, Ka4 printed negative; unreliable

T1 sequence (P02787 20-698): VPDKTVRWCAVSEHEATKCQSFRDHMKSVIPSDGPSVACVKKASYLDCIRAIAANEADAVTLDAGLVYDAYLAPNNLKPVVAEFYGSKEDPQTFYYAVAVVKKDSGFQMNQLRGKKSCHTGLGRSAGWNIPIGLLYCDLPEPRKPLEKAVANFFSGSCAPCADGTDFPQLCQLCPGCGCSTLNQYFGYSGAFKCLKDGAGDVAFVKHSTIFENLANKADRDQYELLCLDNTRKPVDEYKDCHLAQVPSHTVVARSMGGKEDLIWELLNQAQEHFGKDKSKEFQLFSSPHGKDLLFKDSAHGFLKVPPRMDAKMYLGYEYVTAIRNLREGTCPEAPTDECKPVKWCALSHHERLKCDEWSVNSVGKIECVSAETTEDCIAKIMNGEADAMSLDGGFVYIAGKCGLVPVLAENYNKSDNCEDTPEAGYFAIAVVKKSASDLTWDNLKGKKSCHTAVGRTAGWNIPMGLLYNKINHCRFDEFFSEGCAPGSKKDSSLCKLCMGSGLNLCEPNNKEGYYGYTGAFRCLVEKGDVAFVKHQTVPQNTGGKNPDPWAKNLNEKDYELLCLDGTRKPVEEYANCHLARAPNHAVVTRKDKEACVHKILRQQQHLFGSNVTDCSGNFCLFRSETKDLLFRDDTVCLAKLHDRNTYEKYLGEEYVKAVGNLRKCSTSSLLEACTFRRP

K (10^7 M^-1) [1]: 0.107 × 10^7 M^-1
Ka1 [2]: 115000 ± 81000 M⁻¹
SMILES: O=C(/C=C/c1ccc(O)c(O)c1)O[C@H](Cc1ccc(O)c(O)c1)C(=O)O [Rosmarinic acid]
